Test results taken from PubChem BioAssay (NCI).
Values joined by “and” are separate entries in the source; they are usually repeats but may differ in a detail not shown here. Identical values can stand only once.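 Briefly, cells in 96-well plates were exposed to five compound concentrations for 48 h, and endpoints were estimated by linear interpolation. Here, GI50 denotes the concentration required for 50% inhibition of growth. TGI marks complete inhibition of growth.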

Legend:
Assay in all cases: NCI tumour cell line growth inhibition, 48 h
[1] = tested on: DU-145 prostate
[2] = tested on: UO-31 renal
[3] = tested on: SK-OV-3 ovarian
[4] = tested on: HL-60(TB) leukemia
[5] = tested on: A549 NSCLC
[6] = tested on: U251 CNS
[7] = tested on: HT29 colon
[8] = tested on: HOP-92 NSCLC
[9] = tested on: IGROV1 ovarian
[10] = tested on: T-47D breast
[11] = tested on: CAKI-1 renal
[12] = tested on: NCI-H522 lung
[13] = tested on: HCT-15 colon
[14] = tested on: CCRF-CEM leukemia
[15] = tested on: M14 melanoma
[16] = tested on: KM12 colon
[17] = tested on: HOP-62 NSCLC
[18] = tested on: HS 578T breast
[19] = tested on: OVCAR-5 ovarian
[20] = tested on: MDA-MB-231 breast
[21] = tested on: EKVX NSCLC
[22] = tested on: SK-MEL-28 melanoma
[23] = tested on: SF-539 CNS
[24] = tested on: HCC-2998 colon
[25] = tested on: MDA-MB-435
[26] = tested on: SK-MEL-2 melanoma
[27] = tested on: SF-268 CNS
[28] = tested on: SN12C renal
[29] = tested on: RPMI-8226 leukemia
[30] = tested on: SK-MEL-5 melanoma
[31] = tested on: 786-0 renal
[32] = tested on: HCT-116 colon
[33] = tested on: OVCAR-4 ovarian
[34] = tested on: COLO 205 colon
[35] = tested on: UACC-62 melanoma
[36] = tested on: ACHN renal
[37] = tested on: SNB-75 CNS
[38] = tested on: RXF 393 renal
[39] = tested on: SR leukemia
[40] = tested on: SF-295 CNS
[41] = tested on: OVCAR-3 ovarian
[42] = tested on: PC-3 prostate
[43] = tested on: LOX IMVI melanoma
[44] = tested on: TK-10 renal
[45] = tested on: NCI-H226 lung
[46] = tested on: BT-549 breast
[47] = tested on: MOLT-4 leukemia
[48] = tested on: A498 renal
[49] = tested on: NCI-H460 lung
[50] = tested on: SW-620 colon
[51] = tested on: NCI/ADR-RES ovarian
[52] = tested on: NCI-H23 lung
[53] = tested on: MCF7 breast
[54] = tested on: MALME-3M melanoma
[55] = tested on: OVCAR-8 ovarian
[56] = tested on: SNB-19 CNS
[57] = tested on: UACC-257 melanoma
[58] = tested on: K-562 leukemia
[59] = tested on: MDA-N

CC1=CCC(OC(=O)C(C)(C)CCC(O)(C(=O)OC2(C(C)C)CCC3(C)OC3C2)C(C)C)(C(C)C)CC1 (stereo not given) was tested, and the GI50 [1] was 230 nM, the TGI [1] was 451 nM and the GI50 [2] was 63.4 nM. For the same compound, the TGI [2] was 164 nM, the GI50 [3] was 692 nM and the TGI [3] was 5810 nM. The GI50 [4] was 229 nM, the TGI [4] was 7930 nM and the GI50 [5] was 279 nM. The TGI [5] was 1160 nM, the GI50 [6] was 363 nM and the TGI [6] was 1120 nM. The GI50 [7] was 606 nM, the TGI [7] was 1750 nM and the GI50 [8] was 371 nM. For the same compound, the TGI [8] was 1570 nM, the GI50 [9] was 81.4 nM and the TGI [9] was 272 nM. For the same compound, the GI50 [10] was 152 nM, the TGI [10] was 1240 nM and the GI50 [11] was 255 nM. The TGI [11] was 1050 nM, the GI50 [12] was 130 nM and the TGI [12] was 439 nM. It also gave a GI50 [13] of 148 nM, a TGI [13] of 688 nM and a GI50 [14] of 132 nM. It also gave a TGI [14] of 50000 nM, a GI50 [15] of 654 nM and a TGI [15] of 1460 nM. It also gave a GI50 [16] of 793 nM, a TGI [16] of 1600 nM and a GI50 [17] of 615 nM. It also gave a TGI [17] of 1630 nM, a GI50 [18] of 735 nM and a TGI [18] of 3570 nM. It also gave a GI50 [19] of 695 nM, a TGI [19] of 1390 nM and a GI50 [20] of 643 nM. The TGI [20] was 1390 nM, the GI50 [21] was 654 nM and the TGI [21] was 1410 nM. It also gave a GI50 [22] of 993 nM, a TGI [22] of 3010 nM and a GI50 [23] of 707 nM. It also gave a TGI [23] of 1360 nM, a GI50 [24] of 2130 nM and a TGI [24] of 7330 nM. It also gave a GI50 [25] of 355 nM, a TGI [25] of 1040 nM and a GI50 [26] of 790 nM. The TGI [26] was 1780 nM, the GI50 [27] was 603 nM and the TGI [27] was 1460 nM. The GI50 [28] was 124 nM, the TGI [28] was 532 nM and the GI50 [29] was 234 nM. The TGI [29] was 8850 nM, the GI50 [30] was 197 nM and the TGI [30] was 725 nM. For the same compound, the GI50 [31] was 616 nM, the TGI [31] was 1540 nM and the GI50 [32] was 113 nM. The TGI [32] was 381 nM, the GI50 [33] was 608 nM and the TGI [33] was 1870 nM. For the same compound, the GI50 [34] was 496 nM, the TGI [34] was 1590 nM and the GI50 [35] was 298 nM. The TGI [35] was 1110 nM, the GI50 [36] was 107 nM and the TGI [36] was 311 nM. The GI50 [37] was 25.8 nM, the TGI [37] was 1410 nM and the GI50 [38] was 587 nM. It also gave a TGI [38] of 1250 nM, a GI50 [39] of 266 nM and a TGI [39] of 1510 nM. For the same compound, the GI50 [40] was 690 nM, the TGI [40] was 1390 nM and the GI50 [41] was 83.3 nM. It also gave a TGI [41] of 166 nM, a GI50 [42] of 281 nM and a TGI [42] of 987 nM. For the same compound, the GI50 [43] was 76.4 nM, the TGI [43] was 150 nM and the GI50 [44] was 532 nM. It also gave a TGI [44] of 1430 nM, a GI50 [45] of 693 nM and a TGI [45] of 1850 nM. For the same compound, the GI50 [46] was 696 nM, the TGI [46] was 1510 nM and the GI50 [47] was 131 nM. The TGI [47] was 4990 nM, the GI50 [48] was 50.8 nM and the TGI [48] was 935 nM. The GI50 [49] was 570 nM, the TGI [49] was 1390 nM and the GI50 [50] was 340 nM. The TGI [50] was 1130 nM, the GI50 [51] was 635 nM and the TGI [51] was 2630 nM. It also gave a GI50 [52] of 113 nM, a TGI [52] of 301 nM and a GI50 [53] of 121 nM. For the same compound, the TGI [53] was 448 nM, the GI50 [54] was 733 nM and the TGI [54] was 1480 nM. For the same compound, the GI50 [55] was 611 nM, the TGI [55] was 15500 nM and the GI50 [56] was 1140 nM. It also gave a TGI [56] of 5430 nM, a GI50 [57] of 727 nM and a TGI [57] of 1500 nM.
With Cc1nn(-c2ccccc2)c2c1CC(=O)Nc1ccccc1-2 the GI50 [1] was 355 nM, the TGI [1] was greater than 100000 nM and the GI50 [2] was 1110 nM. For the same compound, the TGI [2] was greater than 100000 nM, the GI50 [3] was 332 nM and the TGI [3] was 43800 nM. The GI50 [4] was 20.3 nM, the GI50 [5] was 764 nM and the TGI [5] was greater than 100000 nM. It also gave a GI50 [6] of 282 nM, a TGI [6] greater than 100000 nM and a GI50 [7] of 90.6 nM. It also gave a GI50 [9] of 397 nM, a TGI [9] greater than 100000 nM and a GI50 [58] of 44 nM. It also gave a TGI [58] of 721 nM, a TGI [59] of 470 nM and a GI50 [11] of 346 nM. For the same compound, the TGI [11] was greater than 100000 nM, the GI50 [12] was 170 nM and the TGI [12] was 3750 nM and 593 nM. It also gave a GI50 [13] of 145 nM, a TGI [13] greater than 100000 nM and a GI50 [14] of 112 nM. It also gave a GI50 [15] of 188 nM, a TGI [15] greater than 100000 nM and a GI50 [16] of 88.8 nM. For the same compound, the TGI [16] was greater than 100000 nM, the GI50 [17] was 384 nM and the TGI [17] was greater than 100000 nM. For the same compound, the TGI [19] was greater than 100000 nM, the GI50 [20] was 578 nM and the TGI [20] was greater than 100000 nM. The GI50 [22] was 357 nM, the TGI [22] was greater than 100000 nM and the GI50 [23] was 173 nM. For the same compound, the TGI [23] was 7800 nM and 855 nM, the GI50 [24] was 624 nM and 222 nM and the TGI [24] was 7540 nM and 2490 nM. The TGI [25] was 602 nM, the GI50 [26] was 387 nM and the TGI [26] was greater than 100000 nM. The GI50 [27] was 623 nM, the TGI [27] was greater than 100000 nM and the TGI [28] was greater than 100000 nM. It also gave a GI50 [29] of 82.6 nM, a TGI [29] of 456 nM and a GI50 [30] of 87.9 nM. For the same compound, the TGI [30] was 45200 nM, the GI50 [31] was 570 nM and the TGI [31] was greater than 100000 nM. It also gave a GI50 [32] of 322 nM, a TGI [33] greater than 100000 nM and a GI50 [34] of 318 nM. The TGI [34] was 4840 nM and 1990 nM, the GI50 [35] was 158 nM and the TGI [35] was 73400 nM. It also gave a GI50 [36] of 840 nM, a TGI [36] greater than 100000 nM and a GI50 [37] of 210 nM. For the same compound, the TGI [38] was 5850 nM, the TGI [40] was 3060 nM and the GI50 [41] was 80.5 nM. For the same compound, the TGI [41] was 2920 nM and 552 nM, the GI50 [42] was 279 nM and the GI50 [43] was 431 nM. The TGI [43] was greater than 100000 nM, the TGI [44] was 92200 nM and the GI50 [45] was 465 nM. For the same compound, the TGI [45] was greater than 100000 nM, the GI50 [47] was 84.3 nM and the TGI [47] was 9190 nM and 1990 nM. The GI50 [48] was 27 nM, the GI50 [49] was 381 nM and the TGI [49] was greater than 100000 nM. For the same compound, the GI50 [50] was 152 nM, the TGI [50] was greater than 100000 nM and the TGI [51] was 3730 nM. The GI50 [52] was 357 nM, the TGI [52] was greater than 100000 nM and the GI50 [53] was 78.8 nM. The TGI [53] was greater than 100000 nM, the GI50 [54] was 432 nM and 87.2 nM and the TGI [54] was greater than 100000 nM. The GI50 [57] was 273 nM and the TGI [57] was greater than 100000 nM.
